The values below come from ChEMBL document CHEMBL1201862, “PubChem BioAssay data set” (2004).

Among the test systems are OVCAR-5; SK-MEL-5; SK-MEL-2; Hs-578T; COLO 205; A549; RPMI-8226; NCI/ADR-RES; UO-31; UACC-257; SF-539; DU-145; OVCAR-3; KM12; SK-MEL-28; NCI-H460; TK-10; T47D; CAKI-1; CCRF-CEM.
Holding throughout (assay): NCI-60 cell line screen, 48 h

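Briefly, cells in 96-well plates were exposed to five compound concentrations for 48 h, and endpoints were estimated by linear interpolation. GI50 = concentration required for 50% inhibition of growth.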 Calls of active or inactive are those of the source. No stated cut-off is given here; in the data, active = GI50 up to about 1.1 µM and inactive = higher.

For the compound `CC[C@@H]1CN(C)[C@H]2Cc3c([nH]c4ccccc34)C(=O)C[C@H]1C2C(=O)OC` (stereo not given in full), the GI50 in the assay on OVCAR-5, in the assay on SK-MEL-5, in the assay on SK-MEL-2, in the assay on Hs-578T, in the assay with COLO 205 and with A549 was > 100 µM (inactive) in each case. Also, the GI50 in the assay with RPMI-8226 is > 88.5 µM (inactive); in the assay on NCI/ADR-RES, > 95.7 µM (inactive); in the assay on UO-31, > 100 µM (inactive); in the assay on UACC-257, > 100 µM (inactive); with SF-539, > 100 µM (inactive); in the assay on DU-145, > 100 µM (inactive). The GI50 was > 100 µM (inactive) in the assay on OVCAR-3; > 100 µM (inactive) with KM12; > 100 µM (inactive) with SK-MEL-28; > 100 µM (inactive) in the assay with NCI-H460; > 58.9 µM (inactive) with TK-10; > 100 µM (inactive) in the assay with T47D. For the same compound, the GI50 with CAKI-1 is > 100 µM (inactive); with CCRF-CEM, 96.6 µM (inactive).

On to `O=c1c2ccccc2[nH]c(=S)n1-c1ccc(/N=N/c2cccc3cc(O)ccc23)cc1`, for which the GI50 in the assay with OVCAR-5 was 74.1 µM (inactive); in the assay with SK-MEL-5, 31.8 µM (inactive); in the assay on SK-MEL-2, > 100 µM (inactive); in the assay on Hs-578T, > 100 µM (inactive); in the assay on COLO 205 it was 44.5 µM (inactive); in the assay with A549 it was > 100 µM (inactive). Further, the GI50 in the assay on RPMI-8226, with NCI/ADR-RES, in the assay on UO-31, with UACC-257, in the assay with SF-539 and in the assay on DU-145 was > 100 µM (inactive) each time. For the same compound, the GI50 with OVCAR-3, with KM12, in the assay with SK-MEL-28, in the assay on NCI-H460, with TK-10 and with T47D was > 100 µM (inactive) throughout. In addition, the GI50 in the assay on CAKI-1 and in the assay on CCRF-CEM was > 100 µM (inactive) in each case.

Take `[O-][S+]1SC(=S)C2C=CC=NC21` (stereo not given): the GI50 is 15.3 µM (inactive) with OVCAR-5; 18.8 µM (inactive) in the assay on SK-MEL-5; 19.4 µM (inactive) with SK-MEL-2; 20.7 µM (inactive) with Hs-578T; 21.3 µM (inactive) with COLO 205; 19.2 µM (inactive) with A549. In addition, the GI50 in the assay with RPMI-8226 was 32.1 µM (inactive); with NCI/ADR-RES it was 20.9 µM (inactive); in the assay on UO-31 it was 14.7 µM (inactive); in the assay with UACC-257 it was 15.4 µM (inactive); in the assay on SF-539, 16 µM (inactive); in the assay with DU-145, 16.6 µM (inactive). The GI50 is 20.6 µM (inactive) in the assay on OVCAR-3; 87.7 µM (inactive) in the assay with KM12; > 100 µM (inactive) in the assay on SK-MEL-28; 17.4 µM (inactive) in the assay with NCI-H460; 18.1 µM (inactive) in the assay with TK-10; 18.9 µM (inactive) in the assay with T47D. Further, the GI50 with CAKI-1 and with CCRF-CEM was > 100 µM (inactive) each time.

For `COC(=O)[C@]12CC[C@H]3CN(C(=O)OCc4ccccc4)[C@H]([C@H]31)[C@H](c1ccco1)N2`, the GI50 in the assay on OVCAR-5 is > 100 µM (inactive); in the assay with SK-MEL-5, 17 µM (inactive); in the assay on SK-MEL-2 it was 55.1 µM (inactive); in the assay on Hs-578T it was 42.4 µM (inactive); in the assay with COLO 205 it was 20.1 µM (inactive); in the assay on A549 it was 37.2 µM (inactive). Also, the GI50 in the assay with RPMI-8226 is 27.4 µM (inactive); in the assay with NCI/ADR-RES, 18.1 µM (inactive); in the assay with UO-31, > 100 µM (inactive); in the assay with UACC-257 it was 29.9 µM (inactive); in the assay with SF-539, > 100 µM (inactive); with DU-145 it was > 100 µM (inactive). The GI50 in the assay with OVCAR-3 was 51.6 µM (inactive); in the assay with KM12, 26.4 µM (inactive); with SK-MEL-28 it was 51.3 µM (inactive); in the assay with NCI-H460, 45.6 µM (inactive); with TK-10 it was > 100 µM (inactive); with T47D it was 42.1 µM (inactive). Besides, the GI50 in the assay on CAKI-1 was 35.8 µM (inactive); in the assay on CCRF-CEM it was 33.4 µM (inactive).

Turning to `CC(=O)Oc1ccc2c(c1)CC[C@@H]1C2[C@@H](O[N+](=O)[O-])C[C@@]2(C)C1CC[C@@H]2O` (stereo not given in full), the GI50 is 33 µM (inactive) in the assay with OVCAR-5; 24.7 µM (inactive) in the assay with SK-MEL-5; 32.1 µM (inactive) with SK-MEL-2; 14.4 µM (inactive) with Hs-578T; 50.8 µM (inactive) in the assay with COLO 205; 37.3 µM (inactive) in the assay on A549. In addition, the GI50 is 21 µM (inactive) in the assay with RPMI-8226; 26.9 µM (inactive) with NCI/ADR-RES; 43.9 µM (inactive) in the assay on UO-31; 67.5 µM (inactive) in the assay with UACC-257; 25.6 µM (inactive) in the assay on SF-539; 28.7 µM (inactive) in the assay on DU-145. Also, the GI50 in the assay on OVCAR-3 was 35.1 µM (inactive); in the assay on KM12, 29.9 µM (inactive); in the assay on SK-MEL-28, 48.9 µM (inactive); with NCI-H460, 35.3 µM (inactive); in the assay with TK-10, 49.8 µM (inactive); in the assay on T47D, 47.4 µM (inactive). Also, the GI50 in the assay with CAKI-1 is 78 µM (inactive); in the assay on CCRF-CEM, 22.1 µM (inactive).

For the compound `CO/C=C(/C(=O)OC)c1ccccc1[C@@H]1CC1c1cccc(F)c1` (stereo not given in full), the GI50 with OVCAR-5 is > 100 µM (inactive); with SK-MEL-5, 12.3 µM (inactive); in the assay on SK-MEL-2 it was 16.9 µM (inactive); in the assay on Hs-578T, 41.1 µM (inactive); in the assay on COLO 205, 15.7 µM (inactive); in the assay on A549 it was 20.6 µM (inactive). In addition, the GI50 in the assay with RPMI-8226 is 19.5 µM (inactive); in the assay on NCI/ADR-RES it was 30.5 µM (inactive); with UO-31, 31.8 µM (inactive); with UACC-257 it was 19.9 µM (inactive); in the assay on SF-539, 28.4 µM (inactive); in the assay on DU-145, 33 µM (inactive). Besides, the GI50 was 27.6 µM (inactive) in the assay with OVCAR-3; 24.7 µM (inactive) in the assay on KM12; 39.4 µM (inactive) in the assay on SK-MEL-28; 26.6 µM (inactive) in the assay on NCI-H460; 37.9 µM (inactive) with TK-10; 20.4 µM (inactive) in the assay with T47D. The GI50 is 18.6 µM (inactive) in the assay with CAKI-1 and 26.5 µM (inactive) in the assay on CCRF-CEM.

Regarding `Cc1c2cc[n+](C)cc2c(C)c2c1[nH]c1ccc(Cl)cc12`, the GI50 in the assay with OVCAR-5 was 8.32 µM (inactive); in the assay with SK-MEL-5, 1.09 µM (active); with SK-MEL-2, 2.25 µM (inactive); in the assay on Hs-578T, 0.295 µM (active); with COLO 205, 0.494 µM (active); in the assay with A549, 0.197 µM (active). In addition, the GI50 was 25 µM (inactive) with RPMI-8226; 2.96 µM (inactive) in the assay on NCI/ADR-RES; 1.51 µM (inactive) with UO-31; 8.38 µM (inactive) with UACC-257; 0.401 µM (active) with SF-539; 2.3 µM (inactive) with DU-145. Besides, the GI50 is 2.07 µM (inactive) with OVCAR-3; 0.897 µM (active) in the assay on KM12; 2.92 µM (inactive) with SK-MEL-28; 4.81 µM (inactive) with NCI-H460; 6.95 µM (inactive) in the assay on TK-10; 1.09 µM (active) in the assay on T47D. For the same compound, the GI50 in the assay on CAKI-1 is 1.85 µM (inactive); with CCRF-CEM, 0.802 µM (active).
